According to patent publication US10597405B2, “Chemical compounds” (ASTRAZENECA AB, priority 2017, dated 2020):

Tests used:
KRasG12C [1] = target: T1, KRasG12C (Homo sapiens, UniProt P01116, G12C); assay: KRasG12C functional assay (HTRF nucleotide exchange / Raf RBD binding); format: biochemical; details: GDP loaded biotinylated KRasG12C, samples incubated 4 hrs, FRET readout; single experiment or average of two or more
T1 construct: biotin (biotinylated); made in house
Experimental: KRasG12C Functional Assay
All enzyme and substrate solutions were prepared in assay buffer containing 20 mM HEPES (pH 7.5), 5 mM MgCl2, 150 mM NaCl, and 0.01% Tween 20. […] In a separate mix 20 nM GST-Raf Ras binding domain (GST-Raf RBD, purified in house) and 4 μg/ml anti-GST XL665 antibody (Cisbio) was prepared in assay buffer containing 50 mM Potassium Fluoride and 0.05 mg/ml BSA and equilibrated for 4 hours before adding 0.6 μM Guanosine 5′-[γ-thio]triphosphate (GTPγS, Sigma) and 0.08 μM SOS (purified in house). 5 μl of the GST-RAF RBD mix was then dispensed into each well of the assay plate. […] This is detected simultaneously via the specific binding interaction between active GTPγS KRas^G12C with GST-Raf RBD which brings the europium and XL665 into close proximity enabling an increased FRET signal to be detected on a Pherastar (BMG) plate reader equipped with the HTRF filter module. […] IC50 values were calculated from normalised dose-response response FRET data curve fitted in Genedata screener (Basel, Switzerland).

KRasG12C [2] = target: T1, KRasG12C; assay: KRasG12C Mass Spectrometry adducting assay; format: binding; details: 10 μM test compound, 4 μM KRasG12C, 4 hours reaction; single experiment or average of two or more
Experimental: KRasG12C Mass Spectrometry Adducting Assay
Enzyme solutions were prepared in assay buffer containing 20 mM HEPES (pH 7.5), 5 mM MgCl2, and 150 mM NaCl. 4 μM GDP loaded biotinylated KRas^G12C was prepared in assay buffer and 50 μl added into each well of a 96 well polypropylene assay plate (Greiner, #651201) containing 500 nl of 1 mM test compounds (final concentration 10 μM), this was allowed to react for 4 hours before the addition of 50 μl 1% Formic acid to quench the reaction. The plate was sealed before reading on a Xevo G2 QTOF (Waters) and Acquity LC system (Waters). 10 μl of sample was injected onto a Xbridge BEH300; C4; 3.5 um; 2.1×50 mm column (Waters) running a 3 minute gradient. Blank samples were run in between each test sample.
Data was analysed in Mass Lynx software (Waters), the Total ion count (TIC) trace was used and the eluted protein peak data combined. Using the combined spectrum the data was deconvoluted using MaxEnt1 method. The peak area for apo-protein KRas^G12C (APO) and KRAS+relative cmpd mass (adduct) were measured, and a percentage adduct was calculated using the following calculation: Percent adduct=100*(area of adduct peak/(sum of APO+adduct peaks)

[3] = In vivo studies: oral bioavailability and clearance; details: rat
[4] = Incubations with hepatic systems (turnover); format: in vitro ADME; details: result in words
[5] = Reactivity to glutathione (co-incubation with glutathione in buffer)

Row | SMILES | IC50 (KRasG12C [1]) [nM] | KRasG12C M.S. Binding Mean adduct % (KRasG12C [2]) [%] | bioavailability ([3]; po, species not given, read-out: F value (oral bioavailability)) [%] | clearance [3] [mL/min/kg] | F (oral bioavailability), in words ([3]; result in words) | turnover in incubations with hepatic systems [4] | half-life [5] [h]
1 | C=CC(=O)N1CCN2c3c(cnc4c(C)c(-c5c(O)cccc5F)c(Cl)cc34)OC[C@H]2C1 (single isomer, unassigned) [Compound 39] | 97 | 94 | – | 6 | complete | – | –
2 | C=CC(=O)N1CCN2c3c(cnc4c(F)c(-c5c(O)cccc5F)c(Cl)cc34)N(C)C(=O)[C@H]2C1 (single isomer, unassigned) [Example 17, 3-acryloyl-11-chloro-9-fluoro-10-(2-fluoro-6-hydroxyphenyl)-6-methyl-2,3,4,4a-tetrahydro-1H-pyrazino[1′,2′:4,5]pyrazino[2,3-c]quinolin-5(6H)-one] | 18 | 100 | – | – | – | low turnover | 9.75
3 | C=CC(=O)N1CCN2c3c(cnc4cc(-c5c(O)cccc5F)c(Cl)c(OC)c34)OC[C@H]2C1 [Compound 83, 1-[(4aR)-11-Chloro-10-(2-fluoro-6-hydroxyphenyl)-12-methoxy-1,2,4a,5-tetrahydropyrazino[1′,2′:4,5][1,4]oxazino[2,3-c]quinolin-3(4H)-yl]prop-2-en-1-one] | 257 | 77 | – | – | – | – | –
4 | CN(C)C/C=C/C(=O)N1CCN2c3c(cnc4cc(-c5c(O)cccc5F)c(Cl)cc34)OC[C@H]2C1 [Example 9, (2E)-1-[(4aR)-11-Chloro-10-(2-fluoro-6-hydroxyphenyl)-1,2,4a,5-tetrahydropyrazino[1′,2′:4,5][1,4]oxazino[2,3-c]quinolin-3(4H)-yl]-4-(dimethylamino)but-2-en-1-one] | 341 | 74 | – | – | – | – | –
5 | C=CC(=O)N1CCN2c3c(cnc4cc(-c5c(O)cccc5F)c(Cl)cc34)N(CCN(C)C)C[C@H]2C1 [Example 12, 1-((4aS)-11-Chloro-6-(2-(dimethylamino)ethyl)-10-(2-fluoro-6-hydroxyphenyl)-1,2,4,4a,5,6-hexahydro-3H-pyrazino[1′,2′:4,5]pyrazino[2,3-c]quinolin-3-yl)prop-2-en-1-one] | 231 | 75 | – | – | – | – | –
6 | C=CC(=O)N1CCN2c3c(cnc4cc(-c5c(O)cccc5F)c(Cl)cc34)NC[C@H]2C1 [Example 13, 1-((4aS)-11-Chloro-10-(2-fluoro-6-hydroxyphenyl)-1,2,4,4a,5,6-hexahydro-3H-pyrazino[1′,2′:4,5]pyrazino[2,3-c]quinolin-3-yl)prop-2-en-1-one] | 387 | 86 | – | – | – | – | –
7 | C=CC(=O)N1CCN2c3c(cnc4cc(-c5c(O)cccc5F)c(Cl)cc34)N(C)C(=O)[C@H]2C1 [Example 15, (4aR)-3-Acryloyl-11-chloro-10-(2-fluoro-6-hydroxyphenyl)-6-methyl-2,3,4,4a-tetrahydro-1H-pyrazino[1′,2′:4,5]pyrazino[2,3-c]quinolin-5(6H)-one] | 145 | 100 | – | – | – | – | –
8 | C=CC(=O)N1CCN2c3c(cnc4cc(-c5c(O)cccc5F)c(Cl)cc34)N(C)C(=O)[C@@H]2C1 [Example 16, (4aS)-3-Acryloyl-11-chloro-10-(2-fluoro-6-hydroxyphenyl)-6-methyl-2,3,4,4a-tetrahydro-1H-pyrazino[1′,2′:4,5]pyrazino[2,3-c]quinolin-5(6H)-one] | 2700 | 18 | – | – | – | – | –

More lines, main results first:

Row | IC50 (KRasG12C [1]) [nM] | KRasG12C M.S. Binding Mean adduct % (KRasG12C [2]) [%] | bioavailability ([3]; po, species not given, read-out: F value (oral bioavailability)) [%] | SMILES | clearance [3] [mL/min/kg] | F (oral bioavailability), in words ([3]; result in words) | turnover in incubations with hepatic systems [4] | half-life [5] [h]
9 | 62 | 96 | 43 | C=CC(=O)N1C[C@@H]2COc3cnc4c(C)c(-c5c(O)cccc5F)c(Cl)cc4c3N2C[C@H]1C (single isomer, unassigned) [Compound 40] | – | – | – | –
10 | 5 | 100 | – | C=CC(=O)N1C[C@@H]2C(=O)N(C)c3cnc4c(F)c(-c5c(O)cccc5F)c(Cl)cc4c3N2C[C@H]1C (single isomer, unassigned) [Example 22] | – | – | low turnover | 15.5
11 | 135 | 81 | – | C=CC(=O)N1CCN2c3c(nnc4cc(-c5c(O)cccc5F)c(Cl)cc34)OC[C@H]2C1 [Example 10, 1-((4aR)-11-Chloro-10-(2-fluoro-6-hydroxyphenyl)-1,2,4a,5-tetrahydropyrazino[1′,2′:4,5][1,4]oxazino[2,3-c]cinnolin-3(4H)-yl)prop-2-en-1-one] | – | – | – | –
12 | 47 | 93 | – | C=CC(=O)N1C[C@@H]2COc3cnc4cc(-c5c(O)cccc5F)c(Cl)cc4c3N2C[C@H]1C [Example 11, 1-[(2R,4aR)-11-Chloro-10-(2-fluoro-6-hydroxyphenyl)-2-methyl-1,2,4a,5-tetrahydropyrazino[1′,2′:4,5][1,4]oxazino[2,3-c]quinolin-3(4H)-yl]prop-2-en-1-one] | – | – | – | –
13 | 132 | 91 | – | C=CC(=O)N1CCN2c3c(cnc4cc(-c5c(O)cccc5F)c(Cl)cc34)N(C)C[C@H]2C1 [Example 14, 1-((4aS)-11-chloro-10-(2-fluoro-6-hydroxyphenyl)-6-methyl-1,2,4,4a,5,6-hexahydro-3H-pyrazino[1′,2′:4,5]pyrazino[2,3-c]quinolin-3-yl)prop-2-en-1-one] | – | – | – | –
